Patent publication US20040204488A1, “S-[2-[(1-Iminoethyl)amino]ethyl]-2-methyl-L-cysteine maleate crystalline salt” (priority 2003, published 2004)

Key:
Type in all cases: physicochemical
Moisture sorption = conditions: 90% R.H. and 25° C.
Source text: The novel salt is characterized by some or all of the following physical measurements: elemental analysis (such as by combustion analysis), melting point and heat of fusion (differential scanning calorimetry and thermogravimetric analysis), refractive indices (polarized light microscopy), x-ray powder diffraction pattern, moisture sorption (for example, DVS moisture balance) and vibrational signature (Raman spectrum).
FIG. 12 is a plot of a moisture sorption study of S-[2-[(1-Iminoethyl)amino]ethyl]-2-methyl-L-cysteine maleate.

physchem [1] = conditions: water
physchem [2] = conditions: pKa of amidine ion
Source text: The parent S-[2-[(1-Iminoethyl)amino]ethyl]-2-methyl-L-cysteine molecule has 3 ionizable groups and can exist in 4 ionization states.
At low pH, the molecule exists as a +2 charged free acid, with the carboxylic acid, amine and amidine moieties protonated. This is the ionization state for the dihydrochloride salt. The initial lots of S-[2-[(1-Iminoethyl)amino]ethyl]-2-methyl-L-cysteine (dihydrochloride) contained around 0.3 eq of excess HCl.
As the pH is increased, the carboxylic acid group is the first group to deprotonate, and this produces a net charge on the molecule of +1. If the pH increase is generated by addition of sodium hydroxide to S-[2-[(1-Iminoethyl)amino]ethyl]-2-methyl-L-cysteine, the sodium dihydrochloride salt is formed. If the increase in pH is due to removal of chloride ions by anion exchange processing, the product is the monohydrochloride salt with no sodium.
A positive charge still resides on the amidine, and a negative charge still resides on the carboxyl group. If such material is made by the addition of sodium hydroxide to the dihydrochloride, the resulting product is the monohydrochloro sodium salt, mixed with one equivalent of sodium chloride. The material prepared by the anion exchange resin approach is the free zwitterion.
Further increases in pH lead to deprotonation of the amidine ion (pKa ˜12.5). […]

[3] = Pseudo-titration in water with IRA-400(OH) anion exchange resin (pH vs resin added)
Experimental: 60 g of Amberlite IRA400 (OH) resin was prewashed with 4.7 percent (by weight) ammonium hydroxide (50 ml of 28 percent ammonium hydroxide, 250 ml deionized water), followed by extensive washing with deionized water. The final conductivity was 6.1 μS.
(§1) Cation exchange column cuts containing approximately 0.9 g of S-[2-[(1-Iminoethyl)amino]ethyl]-2-methyl-L-cysteine di-hydrochloride in 142 ml HCl/water solution, were concentrated on a rotary evaporator at 60° C. to an oil. To the oil, diluted to 60 ml with deionized water, was added aliquots of 0.5 g of washed anion exchange resin while stirring. At five minutes after each aliquot of resin was added, the solution pH was measured and a sample removed through a syringe filter. A total of 9 g of anion exchange resin was added. The final pH was 10.8. The resin was removed by filtration and the filtrate was concentrated to an oil by rotary evaporation at 60° C.; no solids formed. The starting material, final filtrate and all intermediate samples were assayed by HPLC and ion chromatography for chloride.
The diamond (solid line) is pH and square (dashed line) is S-[2-[(1-Iminoethyl)amino]ethyl]-2-methyl-L-cysteine (percent initial, by ion chromatography). […] The diamond (solid line) is pH and triangle (broken line) is chloride (by ion chromatography).
These curves are not true titration curves since samples were withdrawn during the progress of the reaction, and since true equilibrium was not attained before the increments of resin were added. Nevertheless, the graphs of FIG. 2 and FIG. 3 illustrate the expected trends. As resin is added to the S-[2-[(1-Iminoethyl)amino]ethyl]-2-methyl-L-cysteine solution the pH rises with change in slope around pH's of 2, 9 and 11. The pH's of slower rise are representative of the pK's of the carboxylic acid, amine and amidine functional groups, respectively. Above a pH of 10, the S-[2-[(1-Iminoethyl)amino]ethyl]-2-methyl-L-cysteine concentration in solution decreases. At this point, the S-[2-[(1-Iminoethyl)amino]ethyl]-2-methyl-L-cysteine is gaining a net negative charge and is binding to the resin. […]

[4] = Solution stability of anion-exchange titration samples by HPLC (Example 8); conditions: fractions of resin titration
Experimental: as §1
3.3 g a sample containing about 1 g of S-[2-[(1-Iminoethyl)amino]ethyl]-2-methyl-L-cysteine di-hydrochloride was diluted to 20 g. Aliquots of prewashed Amberlite IRA400 (OH) resin was added to the solution and samples were periodically withdrawn through a syringe filter. […] The starting materials, intermediate samples and final filtrate were analyzed. […] Samples were drawn at pH of 8.13 and 1.63 and analyzed by HPLC.
In the repeat of the above experiment, the resulting samples were analyzed by HPLC. […]

**Q.** For `CC(=N)NCCSC[C@](C)(N)C(=O)O.O=C(O)/C=C\C(=O)O` [S-[2-[(1-Iminoethyl)amino]ethyl]-2-methyl-L-cysteine maleate], which “water absorbed by weight” value (Moisture sorption) is on record?
**A.** Its value is “less than one percent”.

**Q.** What about the solubility (physchem [1]) of the same compound?
**A.** The solubility was > 230 mg/mL.

**Q.** What does the source list for `CC(=N)NCCSC[C@](C)(N)C(=O)O` [S-[2-[(1-Iminoethyl)amino]ethyl]-2-methyl-L-cysteine]?
**A.** pKa (physchem [2]): ~12.5; pH of slower rise representative of pK of amidine group [3]: ~11; pH of slower rise representative of pK of amine group [3]: ~9; pH of slower rise representative of pK of carboxylic acid group [3]: ~2; degradation of titration fractions by HPLC [4]: no degradation
